Tests used:
[1] = target: T1, Tyrosine-protein kinase JAK2 (Homo sapiens, UniProt O60674); experiment: Inhibition of JAK2 using Km ATP concentration
[2] = target: T1, Tyrosine-protein kinase JAK2; experiment: Inhibition of JAK2 using 5 mM of ATP
[3] = target: T2, Tyrosine-protein kinase JAK3 (Homo sapiens, UniProt P52333); experiment: Inhibition of JAK3 using 5 mM of ATP
T2 sequence (P52333 whole entry): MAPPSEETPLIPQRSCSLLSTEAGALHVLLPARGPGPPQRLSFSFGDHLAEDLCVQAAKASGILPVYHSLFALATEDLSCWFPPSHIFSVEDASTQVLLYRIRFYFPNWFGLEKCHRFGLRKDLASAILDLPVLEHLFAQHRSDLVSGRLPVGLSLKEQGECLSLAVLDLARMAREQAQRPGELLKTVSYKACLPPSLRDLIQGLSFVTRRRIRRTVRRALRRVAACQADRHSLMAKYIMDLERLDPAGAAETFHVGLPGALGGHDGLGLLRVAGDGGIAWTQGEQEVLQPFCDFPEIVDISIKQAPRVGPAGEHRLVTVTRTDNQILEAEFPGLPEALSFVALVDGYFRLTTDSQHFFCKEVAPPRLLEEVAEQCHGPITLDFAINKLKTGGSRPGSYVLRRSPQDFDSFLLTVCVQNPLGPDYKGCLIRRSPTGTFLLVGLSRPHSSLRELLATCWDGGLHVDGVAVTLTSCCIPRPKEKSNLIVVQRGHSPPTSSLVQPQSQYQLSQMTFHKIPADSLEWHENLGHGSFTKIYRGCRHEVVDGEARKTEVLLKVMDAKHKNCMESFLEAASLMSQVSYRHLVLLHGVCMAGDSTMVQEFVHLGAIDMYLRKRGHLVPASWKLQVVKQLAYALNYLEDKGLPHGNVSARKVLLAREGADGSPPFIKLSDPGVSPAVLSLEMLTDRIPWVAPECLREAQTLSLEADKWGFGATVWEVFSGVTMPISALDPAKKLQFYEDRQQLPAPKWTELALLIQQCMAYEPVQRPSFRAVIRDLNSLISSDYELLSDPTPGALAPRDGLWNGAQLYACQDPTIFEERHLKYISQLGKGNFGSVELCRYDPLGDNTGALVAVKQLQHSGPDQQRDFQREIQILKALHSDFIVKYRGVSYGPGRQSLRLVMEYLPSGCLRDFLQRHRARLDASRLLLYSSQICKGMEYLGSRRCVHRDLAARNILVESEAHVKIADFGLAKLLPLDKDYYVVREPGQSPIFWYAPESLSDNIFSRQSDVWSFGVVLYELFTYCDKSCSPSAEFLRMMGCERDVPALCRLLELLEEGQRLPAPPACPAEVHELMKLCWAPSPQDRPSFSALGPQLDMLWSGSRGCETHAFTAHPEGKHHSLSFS

[4] = Growth inhibition of mouse BA/F3 cells expressing Tel-JAK2 kinase after 48 hrs by MTS assay; assay type: functional; settings: BaF3, 48 h
[5] = Aqueous equilibrium solubility of the compound at pH 7.4 by HPLC-UV analysis; assay type: physicochemical
[6] = Octanol-water partition coefficient, log D of the compound at pH 7.4 by shake flask method; assay type: physicochemical
[7] = Oral bioavailability in Han Wistar rat at 10 mg/kg; assay type: ADME, organism-based; settings: in vivo
[8] = Observed clearance in Han Wistar rat at 10 mg/kg, po and 3 mg/kg, iv; assay type: ADME, organism-based; settings: in vivo
[9] = Volume of distribution at steady state in Han Wistar rat at 10 mg/kg, po and 3 mg/kg, iv; assay type: ADME, organism-based; settings: in vivo, read-out: Vdss
[10] = Half life in Han Wistar rat at 10 mg/kg, po and 3 mg/kg, iv; assay type: ADME, organism-based; settings: in vivo
Liver microsomes = experiment: Intrinsic clearance in rat liver microsomes assessed per mg of protein at 2 uM by LCMS/MS analysis; assay type: ADME, Microsome

T1 sequence (O60674 whole entry): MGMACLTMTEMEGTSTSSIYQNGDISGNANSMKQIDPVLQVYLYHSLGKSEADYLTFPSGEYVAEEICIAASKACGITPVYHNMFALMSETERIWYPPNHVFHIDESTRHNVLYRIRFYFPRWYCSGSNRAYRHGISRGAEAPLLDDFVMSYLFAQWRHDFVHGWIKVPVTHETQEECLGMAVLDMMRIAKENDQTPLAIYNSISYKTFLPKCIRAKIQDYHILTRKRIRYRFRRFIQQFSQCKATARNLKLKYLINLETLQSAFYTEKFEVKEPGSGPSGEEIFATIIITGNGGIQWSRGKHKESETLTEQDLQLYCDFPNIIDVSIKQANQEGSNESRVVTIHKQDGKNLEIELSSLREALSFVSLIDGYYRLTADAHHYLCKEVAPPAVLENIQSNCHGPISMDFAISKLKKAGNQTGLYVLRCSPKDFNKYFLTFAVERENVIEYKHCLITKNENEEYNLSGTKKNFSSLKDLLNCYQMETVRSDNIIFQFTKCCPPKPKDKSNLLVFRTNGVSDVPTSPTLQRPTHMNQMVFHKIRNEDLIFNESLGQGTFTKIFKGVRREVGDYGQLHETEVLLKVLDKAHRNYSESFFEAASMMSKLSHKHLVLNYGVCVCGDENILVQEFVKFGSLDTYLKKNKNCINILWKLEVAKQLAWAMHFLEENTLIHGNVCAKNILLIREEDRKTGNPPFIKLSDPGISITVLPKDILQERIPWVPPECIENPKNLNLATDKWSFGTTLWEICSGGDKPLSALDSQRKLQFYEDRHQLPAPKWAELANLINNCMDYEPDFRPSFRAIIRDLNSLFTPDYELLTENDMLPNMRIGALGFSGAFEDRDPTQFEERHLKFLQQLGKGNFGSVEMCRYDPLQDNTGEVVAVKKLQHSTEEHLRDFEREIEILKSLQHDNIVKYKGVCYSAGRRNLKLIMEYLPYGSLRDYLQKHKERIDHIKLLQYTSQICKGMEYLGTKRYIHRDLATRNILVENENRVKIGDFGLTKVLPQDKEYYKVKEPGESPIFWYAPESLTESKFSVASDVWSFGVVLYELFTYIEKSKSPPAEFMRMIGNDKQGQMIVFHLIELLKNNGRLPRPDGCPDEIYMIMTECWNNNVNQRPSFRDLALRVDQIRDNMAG

SMILES	IC50 [1] [nM]	IC50 [2] [nM]	IC50 [3] [nM]	GI50 [4] [nM]	solubility thermodynamic [5] [µM]	logD [6]	bioavailability [7] [%]	clearance [8] [mL/min/kg]	Vd [9] [L/kg]	half-life [10] [h]	clearance (Liver microsomes) [µL/min/mg]
COc1cc(Nc2nc(N[C@@H](C)c3ncc(F)cn3)nc(N3CCOCC3)c2F)n[nH]1	4	8	30500	240	> 460	< 2.6	–	–	–	–	–
COc1cc(Nc2cc(N3CCOCC3)nc(N[C@@H](C)c3ncc(F)cn3)n2)n[nH]1	10	30	200	73	> 460	< 2.6	–	–	–	–	–
Cc1cc(Nc2nc(N[C@@H](C)c3ncc(F)cn3)nc(N3CCOCC3)c2F)n[nH]1	< 3	< 3	> 30000	13	> 460	< 2.6	34	14	1.7	1.9	–
C[C@H](Nc1ncc(F)c(Nc2cc(C3CC3)[nH]n2)n1)c1ncc(F)cn1	3	–	–	250	> 460	< 2.6	–	–	–	–	–
C[C@H](Nc1ncc(Cl)c(Nc2cc(N(C)C)[nH]n2)n1)c1ncc(F)cn1	9	488	> 30000	1200	> 460	< 2.6	–	–	–	–	–
Cc1cc(Nc2nc(N[C@@H](C)c3ncc(F)cn3)ncc2C)n[nH]1	< 3	4	8350	96	> 460	< 2.6	100	18	2.4	1.9	25
Cc1cc(Nc2nc(N[C@@H](C)c3ncc(F)cn3)ncc2Br)n[nH]1	< 3	10	4590	89	> 460	< 2.6	–	–	–	–	–
COc1cc(Nc2nc(N[C@@H](C)c3ncc(F)cn3)ncc2Cl)n[nH]1	3	108	> 30000	410	> 460	< 2.6	–	–	–	–	–
Cc1cc(Nc2cc(N3CCOCC3)nc(N[C@@H](C)c3ncc(F)cn3)n2)[nH]n1	< 3	< 3	30	50	> 460	< 2.6	64	18	1.4	1.1	10
